Source: patent publication US20170266089A1, “USE OF LIPOPHILIC SALICYLIC ACID DERIVATIVES” (L'OREAL, priority 2014, published 2017)

Columns and labels:
[1] = test system: Transglutaminase 3 (TGM3) transcripts; test: Expression of TGM3 transcripts in keratinocytes (RT-qPCR); assay type: cell-based; settings: human epidermic keratinocytes, 24 hours, compound at 15 μm; for TGM3 transcript expression, fold change (fc) compared to control: normalized to RPL13A and GAPDH, N=3
Procedure: (§1) The influence of the compounds (A′) and (F), in particular obtained according to the process indicated above, on the renewal of the epidermis and on the barrier effect of the skin was evaluated in vitro by measuring the expression of TGM1 and TGM3 transcripts in keratinocytes.
(§2) Human epidermic keratinocytes were incubated for 24 hours in the presence or not (control) of compound (A′) or (F). At the end of the incubation, total RNAs were extracted and quantified. The expression of TGM1 and TGM3 transcripts was then measured using a two-step RT-qPCR method with a LightCycler® device according to the technique of incorporation of SYBR®Green (Qiagen). The expression of these transcripts was normalized with the expression of two housekeeping genes, RPL13A and GAPDH. The experiments were reproduced 3 times (N=3).
(§3) The results are given in Table (VI) below, fold change (fc) compared to control.

[2] = test system: Transglutaminase 1 (TGM1) transcripts; test: Expression of TGM1 transcripts in keratinocytes (RT-qPCR); assay type: cell-based; settings: human epidermic keratinocytes, 24 hours, compound at 15 μm; for TGM1 transcript expression, fold change (fc) compared to control: normalized to RPL13A and GAPDH, N=3
Procedure: as §1, §2, §3

laminin-5 = test: Ex vivo immunolabelling of laminin-5 in skin explants; parameters: species or system human; settings: topical 2 mg per explant, compound (F) 5% in water, LHA 5% in ethanol, symbols proportional
Procedure: (§4) The anti-ageing effect of the compound (F), in particular obtained according to the process indicated above, at 5% in water, was evaluated ex vivo by immunolabelling of the proteins collagen III, membrane transglutaminase (MTG), filaggrin and laminin-5, in comparison with LHA (lipohydroxy acid, 2-hydroxy-5-octanoylbenzoic acid) at 5% in ethanol.
(§5) 111 explants with a diameter of approximately 10 mm were prepared from abdominal plastic surgery on a person. These explants were kept alive.
(§6) On day […], the explants were placed on a grid in 2 ml of culture medium. […]
(§7) At D0, D6 and D11, the explants were sampled from the culture medium and cut in two. […] The labellings were evaluated by a microscopic examination. […]
(§8) The microscopic observations were carried out in optical microscopy and fluorescence microscopy, using a Leica microscope of Orthoplan or DMLB type. […]
Immunolabelling of Laminin-5 The labelling of laminin-5 was carried out on frozen sections with a monoclonal antibody, clone P3E4 (Santa Cruz sc-13587), at 1/300th, for 30 minutes at ambient temperature with a biotin/streptavidin amplifying system, visualized in FITC (Caltag sa1001). […] The labelling was evaluated by a microscopic examination. […]
The results obtained with the compound (F) and LHA are assessed, at equivalent date, by comparison with the results obtained in the absence of treatment (control test). […]

[3] = test system: membrane transglutaminase (MTG); test: Ex vivo immunolabelling of membrane transglutaminase (MTG) in skin explants; parameters: species or system human; settings: topical 2 mg per explant, compound (F) 5% in water, LHA 5% in ethanol, symbols proportional
Procedure: as §4, §5, §6, §7, §8
Membrane transglutaminase was labelled on frozen sections with a monoclonal antibody, clone B.C1 (Harbor Bio Product ref. 5003), at 1/100th, for 2 h at ambient temperature with a Vectastain RTU Universal, Vector, avidin/biotin amplifying system and visualized in FITC. […] The labelling was evaluated by a microscopic examination. […]
The results obtained with the compound (F) and […] are assessed, at equivalent date, by comparison with the results obtained in the absence of treatment (control test). […]

SMILES	Stimulation of the expression of TGM3 transcripts (class in words) [1]	TGM3 transcript expression, fold change (fc) compared to control [1]	Stimulation of the expression of TGM1 transcripts (class in words) [2]	TGM1 transcript expression, fold change (fc) compared to control [2]	Laminin-5 expression level, difference in comparison with the control at D11 (laminin-5)	MTG expression level, difference in comparison with the control at D6 [3]
CCCCCCCCCCCCCCCc1cccc(O)c1C(=O)O [Compound (A′), 6-peritadecylsalicylic acid]	strong stimulation	20 fc	strong stimulation	6.0 fc		
CCCCCCCCCCCCCCCc1cccc(O)c1C(=O)O [Compound (F)]	good stimulation	3.0 fc	average stimulation	1.7 fc	No variation	No variation
CCCCCCCC(=O)c1ccc(O)c(C(=O)O)c1 [LHA, 2-hydroxy-5-octanoylbenzoic acid, reference compound]					No variation	
